Test results as given in US20110136801A1, “Novel Compounds” (Dainippon Sumitomo Pharma Co. Ltd., priority 2009, published 2011).

Molecular target: T1, human TLR7 (Homo sapiens, UniProt Q9NYK1)
T1 construct: expressed in transfected cells; host or cells: HEK293 cell line stably expressing the pNiFty2-SEAP reporter plasmid; TLR7 in pUNO vector, blasticidin selection
T1 sequence (Q9NYK1 27-1049): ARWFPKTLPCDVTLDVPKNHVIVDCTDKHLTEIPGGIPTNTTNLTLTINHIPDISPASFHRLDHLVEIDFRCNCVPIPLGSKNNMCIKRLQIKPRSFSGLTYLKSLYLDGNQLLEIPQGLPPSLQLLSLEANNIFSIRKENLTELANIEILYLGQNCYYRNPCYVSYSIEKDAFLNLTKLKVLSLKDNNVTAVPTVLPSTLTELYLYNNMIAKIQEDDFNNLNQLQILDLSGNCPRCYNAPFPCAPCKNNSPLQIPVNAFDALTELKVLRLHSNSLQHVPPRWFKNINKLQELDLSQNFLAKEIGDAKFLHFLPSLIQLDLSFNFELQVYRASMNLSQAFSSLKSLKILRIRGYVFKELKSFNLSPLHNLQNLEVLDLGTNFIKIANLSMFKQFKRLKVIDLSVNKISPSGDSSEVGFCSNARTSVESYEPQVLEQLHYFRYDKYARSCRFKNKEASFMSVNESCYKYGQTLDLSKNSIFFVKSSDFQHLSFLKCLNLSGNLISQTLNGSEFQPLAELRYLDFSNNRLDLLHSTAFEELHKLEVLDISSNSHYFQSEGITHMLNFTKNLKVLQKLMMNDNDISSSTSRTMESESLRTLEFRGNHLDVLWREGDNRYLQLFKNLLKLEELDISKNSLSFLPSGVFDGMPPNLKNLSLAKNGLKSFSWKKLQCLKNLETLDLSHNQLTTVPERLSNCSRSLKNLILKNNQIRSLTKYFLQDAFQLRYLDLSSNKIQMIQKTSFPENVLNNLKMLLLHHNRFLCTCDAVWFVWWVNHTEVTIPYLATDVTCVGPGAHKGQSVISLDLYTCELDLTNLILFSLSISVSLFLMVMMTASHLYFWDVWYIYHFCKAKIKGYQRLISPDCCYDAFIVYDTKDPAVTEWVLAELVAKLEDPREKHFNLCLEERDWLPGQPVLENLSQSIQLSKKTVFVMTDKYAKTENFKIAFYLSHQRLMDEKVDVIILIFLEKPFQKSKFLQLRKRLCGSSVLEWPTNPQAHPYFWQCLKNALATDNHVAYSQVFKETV
Test: Human TLR7 Assay (SEAP reporter in HEK293 cells);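 further: Read-out is secreted alkaline phosphatase made under an NFkB/ELAM-1 composite promoter, reporting TLR7-triggered NFkB activation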
Type: cell-based
Conditions: HEK293 cell line expressing human TLR7 and pNiFty2-SEAP reporter, overnight incubation at 37° C., 0.1% DMSO; read-out: hTLR7 EC50
Text: The most common variant sequence of human TLR7 (represented by the EMBL sequence AF240467) was cloned into the mammalian cell expression vector pUNO and transfected into a HEK293 cell line already stably expressing the pNiFty2-SEAP reporter plasmid; integration of the reporter gene was maintained by selection with the antibiotic zeocin. Transfectants with stable TLR7 expression were selected using the antibiotic blasticidin. In this reporter cell-line, expression of secreted alkaline phosphatase (SEAP) is controlled by an NFkB/ELAM-1 composite promoter comprising five NFkB sites combined with the proximal ELAM-1 promoter. TLR signaling leads to the translocation of NFkB and activation of the promoter results in expression of the SEAP gene. TLR7-specific activation was assessed by determining the level of SEAP produced following overnight incubation of the cells at 37° C. with the standard compound in the presence of 0.1% (v/v) dimethylsulfoxide (DMSO). Concentration dependent induction of SEAP production by compounds was expressed as the concentration of compound which produced half of the maximal level of SEAP induction for that compound (EC50).

SMILES | EC50 [nM]
COCCc1nc2c(N)nc3ccccc3c2n1CCCN(Cc1cccc(OCC(=O)OC)c1)C(=O)CN(C)C [Example 17, Methyl (3-{[[3-(4-amino-2-(2-methoxyethyl)-1H-imidazo[4,5-c]quinolin-1-yl)propyl](N,N-dimethylglycyl)amino]methyl}phenoxy)acetate] | 349
CCCc1nc2c(N)nc3ccccc3c2n1CCCN(Cc1cccc(OCC(=O)OC(C)C)c1)C(=O)CN(CC)CC [Example 160, Isopropyl 2-[3-({N-[3-(4-amino-2-propyl-1H-imidazo[4,5-c]quinolin-1-yl)propyl]-2-(diethylamino)acetamido}methyl)phenoxy]acetate] | 260
CCN(CC)CC(=O)N(CCn1c(CCOC)nc2c(N)nc3ccccc3c21)Cc1cccc(OCC(=O)OC(C)C)c1 [Example 103, Isopropyl 2-{3-[(N-{2-[4-amino-2-(2-methoxyethyl)-1H-imidazo[4,5-c]quinolin-1-yl]ethyl}-2-{diethylamino}acetamido)methyl]phenoxy}acetate] | > 10000
CCOC(=O)COc1cc(CN(CCCn2c(CCOC)nc3c(N)nc4ccccc4c32)C(=O)CN(CC)CC)ccc1C [Example 66, Ethyl 2-{5-[(N-{3-[4-amino-2-(2-methoxyethyl)-1H-imidazo[4,5-c]quinolin-1-yl]propyl}-2-{diethylamino}acetamido)methyl]-2-methylphenoxy}acetate] | 27.3
CCC(Oc1cccc(CN(CCCn2c(CCOC)nc3c(N)nc4ccccc4c32)C(=O)CN(CC)CC)c1)C(=O)OC (centres unmarked) [Example 70, Methyl 2-{3-[(N-{3-[4-amino-2-(2-methoxyethyl)-1H-imidazo[4,5-c]quinolin-1-yl]propyl}-2-{diethylamino}acetamido)methyl]phenoxy}butanoate] | 25.9
CCOC(=O)COc1ccc(CN(CCCn2c(CCOC)nc3c(N)nc4ccccc4c32)C(=O)CN(CC)CC)cc1 [Example 37, Ethyl 2-{4-[(N-{3-[4-amino-2-(2-methoxyethyl)-1H-imidazo[4,5-c]quinolin-1-yl]propyl}-2-(diethylamino)acetamido)methyl]phenoxy}acetate] | 38.3
COCCc1nc2c(N)nc3ccccc3c2n1CCCN(Cc1cccc(OCC(=O)OC)c1)C(=O)CN1CCCCC1 [Example 19, Methyl (3-{[[3-(4-amino-2-(2-methoxyethyl)-1H-imidazo[4,5-c]quinolin-1-yl)propyl](piperidin-1-ylacetyl)amino]methyl}phenoxy)acetate] | 178
COCCc1nc2c(N)nc3ccccc3c2n1CCCN(Cc1cccc(OCC(=O)OC(C)C)c1)C(=O)CN(C)CCOC [Example 115, Isopropyl 2-{3-[(N-{3-[4-amino-2-(2-methoxyethyl)-1H-imidazo[4,5-c]quinolin-1-yl]propyl}-2-{(2-methoxyethyl)(methyl)amino}acetamido)methyl]phenoxy}acetate] | 173
CCOC(=O)COc1ccccc1CN(CCCn1c(CCOC)nc2c(N)nc3ccccc3c21)C(=O)CN(CC)CC [Example 41, Ethyl 2-{2-[(N-{3-[4-amino-2-(2-methoxyethyl)-1H-imidazo[4,5-c]quinolin-1-yl]propyl}-2-(diethylamino)acetamido)methyl]phenoxy}acetate] | 137
COCCc1nc2c(N)nc3ccccc3c2n1CCCN(Cc1ccc(OC)c(OCC(=O)OC(C)C)c1)C(=O)CN(C)C [Example 75, Isopropyl 2-{5-[(N-{3-[4-amino-2-(2-methoxyethyl)-1H-imidazo[4,5-c]quinolin-1-yl]propyl}-2-{dimethylamino}acetamido)methyl]-2-methoxyphenoxy}acetate] | 405
CCOC(=O)COc1cc(CN(CCCn2c(CCOC)nc3c(N)nc4ccccc4c32)C(=O)CN(CC)CC)ccc1OC [Example 62, Ethyl 2-{5-[(N-{3-[4-amino-2-(2-methoxyethyl)-1H-imidazo[4,5-c]quinolin-1-yl]propyl}-2-{diethylamino}acetamido)methyl]-2-methoxyphenoxy}acetate] | 84.2
CCCCc1nc2c(N)nc3ccccc3c2n1CCCN(Cc1cccc(OC(C)(C)C(=O)OC)c1)C(=O)CN(C)C [Example 156, Methyl 2-[3-({N-[3-(4-amino-2-butyl-1H-imidazo[4,5-c]quinolin-1-yl)propyl]-2-(dimethylamino)acetamido}methyl)phenoxy]-2-methylpropanoate] | 168
CCCCc1nc2c(N)nc3ccccc3c2n1CCCN(Cc1ccc(OCC(=O)OC)cc1)C(=O)CN1CCN(C)CC1 [Example 7, Methyl [4-({[3-(4-amino-2-butyl-1H-imidazo[4,5-c]quinolin-1-yl)propyl][(4-methylpiperazin-1-yl)acetyl]amino}methyl)phenoxy]acetate] | 633
CCN(CC)CC(=O)N(CCCn1c(CCOC)nc2c(N)nc3ccccc3c21)Cc1cccc(OC2(C(=O)OC)CC2)c1 [Example 79, Methyl 1-{3-[(N-{3-[4-amino-2-(2-methoxyethyl)-1H-imidazo[4,5-c]quinolin-1-yl]propyl}-2-{diethylamino}acetamido)methyl]phenoxy}cyclopropanecarboxylate] | 51.8
CCCCOC(=O)COc1cccc(CN(CCCn2c(CCOC)nc3c(N)nc4ccccc4c32)C(=O)CN(CC)CC)c1 [Example 83, Butyl 2-{3-[(N-{3-[4-amino-2-(2-methoxyethyl)-1H-imidazo[4,5-c]quinolin-1-yl]propyl}-2-{diethylamino}acetamido)methyl]phenoxy}acetate] | 61.3
CCN(CC)CC(=O)N(CCCn1c(CCOC)nc2c(N)nc3ccccc3c21)Cc1cccc(OCC(=O)OC2CCOCC2)c1 [Example 82, Tetrahydro-2H-pyran-4-yl 2-{3-[(N-{3-[4-amino-2-(2-methoxyethyl)-1H-imidazo[4,5-c]quinolin-1-yl]propyl}-2-{diethylamino}acetamido)methyl]phenoxy}acetate] | 115
CCCCc1nc2c(N)nc3ccccc3c2n1CCCN(Cc1cccc(OCC(=O)OC(C)C)c1F)C(=O)CN(CC)CC [Example 164, Isopropyl 2-[3-({N-[3-(4-amino-2-butyl-1H-imidazo[4,5-c]quinolin-1-yl)propyl]-2-(diethylamino)acetamido}methyl)-2-fluorophenoxy]acetate] | 158
COCCc1nc2c(N)nc3ccccc3c2n1CCCCN(CCCN1CCOCC1)Cc1cccc(OC(C)(C)C(=O)OC)c1 [Example 137, Methyl 2-{3-[({4-[4-amino-2-(2-methoxyethyl)-1H-imidazo[4,5-c]quinolin-1-yl]butyl}{3-morpholinopropyl}amino)methyl]phenoxy}-2-methylpropanoate] | 87.7
CCN(CC)CC(=O)N(CCCn1c(CCOC)nc2c(N)nc3ccccc3c21)Cc1cccc(OCC(=O)OC(C)C)c1OC [Example 90, Isopropyl 2-{3-[(N-{3-[4-amino-2-(2-methoxyethyl)-1H-imidazo[4,5-c]quinolin-1-yl]propyl}-2-{diethylamino}acetamido)methyl]-2-methoxyphenoxy}acetate] | 81
CCOC(=O)C(C)(C)Oc1cccc(CN(CCCn2c(CCOC)nc3c(N)nc4ccccc4c32)C(=O)CN(C)CC)c1 [Example 150, Ethyl 2-{3-[(N-{3-[4-amino-2-(2-methoxyethyl)-1H-imidazo[4,5-c]quinolin-1-yl]propyl}-2-{ethyl(methyl)amino}acetamido)methyl]phenoxy}-2-methylpropanoate] | 84.6
CCOC(=O)C(CC)Oc1cccc(CN(CCCn2c(CCOC)nc3c(N)nc4ccccc4c32)C(=O)CN(CC)CC)c1 (centres unmarked) [Example 71, Ethyl 2-{3-[(N-{3-[4-amino-2-(2-methoxyethyl)-1H-imidazo[4,5-c]quinolin-1-yl]propyl}-2-{diethylamino}acetamido)methyl]phenoxy}butanoate] | 23
CCOC(=O)C1(Oc2cccc(CN(CCCn3c(CCOC)nc4c(N)nc5ccccc5c43)C(=O)CN(CC)CC)c2)CCC1 [Example 59, Ethyl 1-{3-[(N-{3-[4-amino-2-(2-methoxyethyl)-1H-imidazo[4,5-c]quinolin-1-yl]propyl}-2-{diethylamino}acetamido)methyl]phenoxy}cyclobutanecarboxylate] | 69
CCOC(=O)COc1ccc(CN(CCN2CCCCC2)C(=O)NCCCCn2c(CCOC)nc3c(N)nc4ccccc4c32)cc1 [Example 131, Ethyl 2-{4-[(3-{4-[4-amino-2-(2-methoxyethyl)-1H-imidazo[4,5-c]quinolin-1-yl]butyl}-1-{2-(piperidin-1-yl)ethyl}ureido)methyl]phenoxy}acetate] | 37.5
